Tests used:
Carbonic anhydrase 12 = Carbonic anhydrase 12 (Homo sapiens, UniProt O43570); assay: Inhibition of human catalytic domain of carbonic anhydrase 12 preincubated for 15 mins by stopped-flow CO2 hydration assay
Carbonic anhydrase 13 = Carbonic anhydrase 13 (Mus musculus, UniProt Q9D6N1); assay: Inhibition of mouse carbonic anhydrase 13 preincubated for 15 mins by stopped-flow CO2 hydration assay
Carbonic anhydrase 1 = Carbonic anhydrase 1 (Homo sapiens, UniProt P00915); assay: Inhibition of human carbonic anhydrase 1 preincubated for 15 mins by stopped-flow CO2 hydration assay
Carbonic anhydrase 2 = Carbonic anhydrase 2 (Homo sapiens, UniProt P00918); assay: Inhibition of human carbonic anhydrase 2 preincubated for 15 mins by stopped-flow CO2 hydration assay
Carbonic anhydrase 7 = Carbonic anhydrase 7 (Homo sapiens, UniProt P43166); assay: Inhibition of human carbonic anhydrase 7 preincubated for 15 mins by stopped-flow CO2 hydration assay
Carbonic anhydrase 6 = Carbonic anhydrase 6 (Homo sapiens, UniProt P23280); assay: Inhibition of human carbonic anhydrase 6 preincubated for 15 mins by stopped-flow CO2 hydration assay
[1] = target: Carbonic anhydrase 5B, mitochondrial (Homo sapiens, UniProt Q9Y2D0); assay: Inhibition of human carbonic anhydrase 5B preincubated for 15 mins by stopped-flow CO2 hydration assay
Carbonic anhydrase 4 = Carbonic anhydrase 4 (Homo sapiens, UniProt P22748); assay: Inhibition of human carbonic anhydrase 4 preincubated for 15 mins by stopped-flow CO2 hydration assay
[2] = target: Carbonic anhydrase 5A, mitochondrial (Homo sapiens, UniProt P35218); assay: Inhibition of human carbonic anhydrase 5A preincubated for 15 mins by stopped-flow CO2 hydration assay
Carbonic anhydrase 3 = Carbonic anhydrase 3 (Homo sapiens, UniProt P07451); assay: Inhibition of human carbonic anhydrase 3 preincubated for 15 mins by stopped-flow CO2 hydration assay
Carbonic anhydrase 9 = Carbonic anhydrase 9 (Homo sapiens, UniProt Q16790); assay: Inhibition of human catalytic domain of carbonic anhydrase 9 preincubated for 15 mins by stopped-flow CO2 hydration assay
Carbonic anhydrase 14 = Carbonic anhydrase 14 (Homo sapiens, UniProt Q9ULX7); assay: Inhibition of human carbonic anhydrase 14 preincubated for 15 mins by stopped-flow CO2 hydration assay
Chain of Carbonic anhydrase 14 (Q9ULX7 whole entry): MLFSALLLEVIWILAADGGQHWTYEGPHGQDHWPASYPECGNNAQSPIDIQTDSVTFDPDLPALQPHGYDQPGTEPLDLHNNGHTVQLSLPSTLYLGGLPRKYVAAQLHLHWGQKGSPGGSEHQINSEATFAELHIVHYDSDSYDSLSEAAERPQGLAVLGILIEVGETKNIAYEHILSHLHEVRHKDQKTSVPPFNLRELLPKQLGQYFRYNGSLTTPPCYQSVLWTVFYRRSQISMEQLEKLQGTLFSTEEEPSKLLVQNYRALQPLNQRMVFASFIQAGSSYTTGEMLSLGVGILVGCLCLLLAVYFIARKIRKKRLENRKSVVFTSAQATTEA

Chain of Carbonic anhydrase 1 (P00915 whole entry): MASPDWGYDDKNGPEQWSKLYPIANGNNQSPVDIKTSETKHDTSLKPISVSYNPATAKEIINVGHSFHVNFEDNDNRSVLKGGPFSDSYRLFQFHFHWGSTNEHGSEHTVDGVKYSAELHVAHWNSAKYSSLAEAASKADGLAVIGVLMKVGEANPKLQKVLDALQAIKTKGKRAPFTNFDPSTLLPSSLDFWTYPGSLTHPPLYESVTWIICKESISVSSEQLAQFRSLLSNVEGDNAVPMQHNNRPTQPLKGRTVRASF
Chain of Carbonic anhydrase 13 (Q9D6N1 whole entry): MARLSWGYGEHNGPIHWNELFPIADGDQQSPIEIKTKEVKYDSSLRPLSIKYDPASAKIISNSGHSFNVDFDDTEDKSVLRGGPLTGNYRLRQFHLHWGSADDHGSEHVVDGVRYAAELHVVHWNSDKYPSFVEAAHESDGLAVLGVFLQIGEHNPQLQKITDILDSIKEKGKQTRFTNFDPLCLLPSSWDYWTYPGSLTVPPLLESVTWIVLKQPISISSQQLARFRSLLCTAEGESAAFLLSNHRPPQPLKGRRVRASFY
Chain of Carbonic anhydrase 3 (P07451 whole entry, the tested form may be a part): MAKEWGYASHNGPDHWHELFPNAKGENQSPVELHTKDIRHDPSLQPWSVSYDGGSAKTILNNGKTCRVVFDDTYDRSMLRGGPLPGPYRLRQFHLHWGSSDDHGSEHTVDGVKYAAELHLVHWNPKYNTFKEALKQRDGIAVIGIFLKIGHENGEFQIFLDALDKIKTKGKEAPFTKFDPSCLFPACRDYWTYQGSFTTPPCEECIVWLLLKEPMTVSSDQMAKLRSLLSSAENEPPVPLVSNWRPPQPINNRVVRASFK
Chain of Carbonic anhydrase 7 (P43166 whole entry): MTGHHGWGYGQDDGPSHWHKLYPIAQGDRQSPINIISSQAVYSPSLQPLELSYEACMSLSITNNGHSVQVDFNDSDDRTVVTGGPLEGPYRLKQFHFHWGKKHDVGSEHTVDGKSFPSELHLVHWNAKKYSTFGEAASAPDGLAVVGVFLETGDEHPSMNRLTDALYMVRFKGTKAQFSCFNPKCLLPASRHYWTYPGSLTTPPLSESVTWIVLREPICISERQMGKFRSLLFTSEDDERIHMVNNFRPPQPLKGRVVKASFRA
Chain of Carbonic anhydrase 6 (P23280 whole entry): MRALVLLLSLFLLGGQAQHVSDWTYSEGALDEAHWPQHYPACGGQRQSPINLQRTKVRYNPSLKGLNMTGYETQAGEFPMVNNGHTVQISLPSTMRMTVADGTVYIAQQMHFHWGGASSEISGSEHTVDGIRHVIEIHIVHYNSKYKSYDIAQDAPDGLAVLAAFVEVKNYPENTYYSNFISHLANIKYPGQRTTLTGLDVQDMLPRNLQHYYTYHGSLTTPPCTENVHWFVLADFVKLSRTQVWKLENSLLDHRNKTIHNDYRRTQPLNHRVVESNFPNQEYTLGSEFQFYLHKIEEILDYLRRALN
Chain of Carbonic anhydrase 5B, mitochondrial (Q9Y2D0 whole entry): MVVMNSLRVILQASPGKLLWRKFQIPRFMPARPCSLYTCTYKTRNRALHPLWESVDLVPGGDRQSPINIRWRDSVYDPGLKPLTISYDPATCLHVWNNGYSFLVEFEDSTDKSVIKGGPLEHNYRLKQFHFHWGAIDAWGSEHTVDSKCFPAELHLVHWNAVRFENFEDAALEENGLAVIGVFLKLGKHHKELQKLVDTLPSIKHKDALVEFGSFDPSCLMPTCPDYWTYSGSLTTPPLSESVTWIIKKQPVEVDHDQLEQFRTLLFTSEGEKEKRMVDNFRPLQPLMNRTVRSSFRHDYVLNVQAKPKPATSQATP
Chain of Carbonic anhydrase 5A, mitochondrial (P35218 whole entry): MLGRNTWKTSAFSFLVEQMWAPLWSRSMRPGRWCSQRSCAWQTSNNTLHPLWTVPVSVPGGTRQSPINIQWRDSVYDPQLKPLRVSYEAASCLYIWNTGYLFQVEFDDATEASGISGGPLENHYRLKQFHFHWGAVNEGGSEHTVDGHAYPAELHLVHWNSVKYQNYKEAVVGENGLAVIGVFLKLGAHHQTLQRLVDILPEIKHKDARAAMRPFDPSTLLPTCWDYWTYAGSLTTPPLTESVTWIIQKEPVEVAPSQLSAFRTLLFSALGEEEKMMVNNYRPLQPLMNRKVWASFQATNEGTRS
Chain of Carbonic anhydrase 4 (P22748 whole entry): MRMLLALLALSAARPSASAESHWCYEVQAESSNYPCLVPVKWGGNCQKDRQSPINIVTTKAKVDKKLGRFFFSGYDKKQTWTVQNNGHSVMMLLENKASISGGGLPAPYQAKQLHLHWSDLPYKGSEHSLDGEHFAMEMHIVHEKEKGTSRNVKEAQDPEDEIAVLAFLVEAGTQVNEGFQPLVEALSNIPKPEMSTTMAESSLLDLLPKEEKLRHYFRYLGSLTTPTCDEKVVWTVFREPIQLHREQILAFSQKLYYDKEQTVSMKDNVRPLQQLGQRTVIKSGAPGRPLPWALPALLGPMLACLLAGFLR
Chain of Carbonic anhydrase 12 (O43570 whole entry, the tested form may be a part): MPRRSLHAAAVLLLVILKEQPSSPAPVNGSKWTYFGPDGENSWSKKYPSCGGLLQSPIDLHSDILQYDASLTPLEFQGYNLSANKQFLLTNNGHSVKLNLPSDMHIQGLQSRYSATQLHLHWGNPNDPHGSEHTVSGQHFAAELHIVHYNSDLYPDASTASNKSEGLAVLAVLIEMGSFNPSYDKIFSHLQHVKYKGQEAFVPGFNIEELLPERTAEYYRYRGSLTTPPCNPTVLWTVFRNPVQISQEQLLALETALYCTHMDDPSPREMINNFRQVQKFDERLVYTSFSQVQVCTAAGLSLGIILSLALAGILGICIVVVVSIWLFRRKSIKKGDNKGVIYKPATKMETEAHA

Row | Ki (Carbonic anhydrase 12) | Ki (Carbonic anhydrase 13) | Ki (Carbonic anhydrase 1) | Ki (Carbonic anhydrase 2) | Ki (Carbonic anhydrase 7) | Ki (Carbonic anhydrase 6) | Ki [1] | Ki (Carbonic anhydrase 4) | Ki [2] | Ki (Carbonic anhydrase 3) | Ki (Carbonic anhydrase 9) | Ki (Carbonic anhydrase 14) | Structure (SMILES)
1 | 29.4 µM | 8.92 µM | > 50 µM | > 50 µM | 0.72 µM | 0.73 µM | 0.8 µM | 18.7 µM | 0.97 µM | > 50 µM | 0.86 µM | 0.81 µM | O=C(/C=C/c1ccc(O)cc1)OCc1ccccc1
2 |  | 0.84 µM | 5.23 µM | > 50 µM |  |  |  |  |  | > 50 µM | 0.93 µM |  | O=C(/C=C/c1ccc(O)c(O)c1)OCCc1ccc(OCCc2ccc(O)cc2)cc1
3 |  | 0.9 µM | 9.62 µM | > 50 µM |  |  |  |  |  | > 50 µM | 0.97 µM |  | O=C(/C=C/c1ccc(O)c(O)c1)OCCc1cccc(OCCc2cccc(O)c2)c1
4 |  | 0.91 µM | > 50 µM | > 50 µM |  |  |  |  |  | > 50 µM | 0.99 µM |  | COc1cc(/C=C/C(=O)OCCc2cccc(O)c2)ccc1O
5 |  | 13.9 µM | 3.87 µM | > 50 µM |  |  |  |  |  | > 50 µM | 0.71 µM |  | O=C(/C=C/c1ccc(O)cc1)OCCc1ccc(O)cc1
6 |  | 11.6 µM | 3.66 µM | > 50 µM |  |  |  |  |  | > 50 µM | 0.82 µM |  | O=C(/C=C/c1ccc(O)cc1)OCCc1cccc(O)c1
7 |  | 0.93 µM | > 50 µM | > 50 µM |  |  |  |  |  | > 50 µM | 0.81 µM |  | COc1cc(/C=C/C(=O)OCCc2ccc(O)cc2)ccc1O

Row | Structure (SMILES) | Ki (Carbonic anhydrase 12) | Ki (Carbonic anhydrase 13) | Ki (Carbonic anhydrase 1) | Ki (Carbonic anhydrase 2) | Ki (Carbonic anhydrase 7) | Ki (Carbonic anhydrase 6) | Ki [1] | Ki (Carbonic anhydrase 4) | Ki [2] | Ki (Carbonic anhydrase 3) | Ki (Carbonic anhydrase 9) | Ki (Carbonic anhydrase 14)
8 | COc1cc(/C=C/C(=O)OCc2ccccc2)ccc1O [BENZYL FERULATE] |  | 0.94 µM | > 50 µM | > 50 µM |  |  |  |  |  | > 50 µM | 1.03 µM | 
